Source: patent US20150105252A1, “SUBSTITUTED PYRAZOLES AS HERBICIDES” (E I DU PONT DE NEMOURS AND COMPANY, priority 2013, published 2015)

Experiments:
barnyardgrass [1] = assay: Test A preemergence; format: in vivo, Echinochloa crus-galli; conditions: preemergence
Procedure, shortened: (§1)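 After sowing in a sand–loam mix, pots received compound preemergence by directed soil spray, or postemergence once plants reached the one- to two-leaf stage (2–10 cm). Formulation contained surfactant in a non-phytotoxic solvent. Injury was scored visually after ~10 greenhouse days, 0–100 scale.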

crabgrass, large [2] = assay: Test A preemergence; format: in vivo, Digitaria sanguinalis; conditions: preemergence
Procedure, shortened: as §1

velvetleaf [3] = assay: Test A preemergence; format: in vivo, Abutilon theophrasti; conditions: preemergence
Procedure, shortened: as §1

wheat [4] = assay: Test A preemergence; format: in vivo, Triticum aestivum; conditions: preemergence
Procedure, shortened: as §1

corn [5] = assay: Test A preemergence; format: in vivo, Zea mays; conditions: preemergence
Procedure, shortened: as §1

crabgrass, large [6] = assay: Test A postemergence; format: in vivo, Digitaria sanguinalis
Procedure, shortened: as §1

pigweed = assay: Test A postemergence; format: in vivo, Amaranthus retroflexus
Procedure, shortened: as §1

wheat [7] = assay: Test A postemergence; format: in vivo, Triticum aestivum
Procedure, shortened: as §1

blackgrass = assay: Test C preemergence; format: in vivo, Alopecurus myosuroides; conditions: for Blackgrass plant response rating / Plant response rating, Blackgrass: preemergence; for Plant response rating, Blackgrass: scale 0 to 100, 0 = no effect, 100 = complete control
Procedure, shortened: (§2)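 Greenhouse pot test: preemergence application onto freshly seeded loam/sand mix, postemergence application onto seedlings (1–4 leaves, 2–18 cm) in peat-vermiculite substrate. Responses scored visually 13 to 15 days later relative to controls, where 0 means no effect and 100 means complete control; a dash indicates no result.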

wheat [8] = assay: Test C preemergence; format: in vivo, Triticum aestivum; conditions: for Wheat plant response rating / Plant response rating, Wheat: preemergence; for Plant response rating, Wheat: scale 0 to 100, 0 = no effect, 100 = complete control
Procedure, shortened: as §2

corn [9] = assay: Test C preemergence; format: in vivo, Zea mays; conditions: for Corn plant response rating / Plant response rating, Corn: preemergence; for Plant response rating, Corn: scale 0 to 100, 0 = no effect, 100 = complete control
Procedure, shortened: as §2

foxtail, giant = assay: Test C preemergence; format: in vivo, Setaria faberii; conditions: for Foxtail, Giant plant response rating / Plant response rating, Foxtail, Giant: preemergence; for Plant response rating, Foxtail, Giant: scale 0 to 100, 0 = no effect, 100 = complete control
Procedure, shortened: as §2

johnsongrass = assay: Test C preemergence; format: in vivo, Sorghum halepense; conditions: for Johnsongrass plant response rating / Plant response rating, Johnsongrass: preemergence; for Plant response rating, Johnsongrass: scale 0 to 100, 0 = no effect, 100 = complete control
Procedure, shortened: as §2

ragweed = assay: Test C preemergence; format: in vivo, Ambrosia elation; conditions: for Ragweed plant response rating / Plant response rating, Ragweed: preemergence; for Plant response rating, Ragweed: scale 0 to 100, 0 = no effect, 100 = complete control
Procedure, shortened: as §2

barnyardgrass [10] = assay: Test C preemergence; format: in vivo, Echinochloa crus-galli; conditions: for Barnyardgrass plant response rating / Plant response rating, Barnyardgrass: preemergence; for Plant response rating, Barnyardgrass: scale 0 to 100, 0 = no effect, 100 = complete control
Procedure, shortened: as §2

oilseed rape = assay: Test C preemergence; format: in vivo, Brassica napus; conditions: for Oilseed Rape plant response rating / Plant response rating, Oilseed Rape: preemergence; for Plant response rating, Oilseed Rape: scale 0 to 100, 0 = no effect, 100 = complete control
Procedure, shortened: as §2

velvetleaf [11] = assay: Test C preemergence; format: in vivo, Abutilon theophrasti; conditions: for Velvetleaf plant response rating / Plant response rating, Velvetleaf: preemergence; for Plant response rating, Velvetleaf: scale 0 to 100, 0 = no effect, 100 = complete control
Procedure, shortened: as §2

[12] = 125 g ai/ha, visual injury, 0 to 100 scale, approx. 10 days
[13] = 500 g ai/ha, visual injury after approx. 10 days, 0 to 100 scale (0 no effect, 100 complete control)
[14] = Postemergence, 500 g ai/ha, visual rating after approx. 10 days, 0 to 100 scale (0 no effect, 100 complete control)
[15] = postemergence, 125 g ai/ha, about 10 days, visual rating on 0 to 100 scale (0 no effect, 100 complete control)
[16] = 31 g ai/ha, visual rating, scale 0 to 100 (0 no effect, 100 complete control), 13 to 15 days
[17] = 125 g ai/ha, scale 0 to 100, 0 is no effect, 100 is complete control
[18] = 125 g ai/ha, visual injury approx. 10 days after treatment
[19] = Postemergence, 500 g ai/ha, 0 to 100 scale (0 no effect, 100 complete control)
[20] = Postemergence, 125 g ai/ha, 0 to 100 scale, 0 no effect, 100 complete control
[21] = 62 g ai/ha, scale 0 to 100 (0 no effect, 100 complete control), 13 to 15 days
[22] = 250 g ai/ha, scale 0 to 100, 0 is no effect, 100 is complete control

CCOc1cc(C(=O)NCC(F)(F)F)nn1Cc1ccnc(C(F)(F)F)c1 [Compound 104]
Barnyardgrass plant response rating (barnyardgrass [1]; [12]): 100 | Barnyardgrass plant response rating (barnyardgrass [1]; [13]): 100 | Crabgrass, Large plant response rating (crabgrass, large [2]; [12]): 100 | Crabgrass, Large plant response rating (crabgrass, large [2]; [13]): 100 | Velvetleaf plant response rating (velvetleaf [3]; [12]): 100 | Velvetleaf plant response rating (velvetleaf [3]; [13]): 100 | Wheat plant response rating (wheat [4]; [12]): 90 | Wheat plant response rating (wheat [4]; [13]): 100 | Corn plant response rating (corn [5]; [12]): 60 | Corn plant response rating (corn [5]; [13]): 80 | Crabgrass, Large plant response rating (crabgrass, large [6]; [14]): 90 | Crabgrass, Large plant response rating (crabgrass, large [6]; [15]): 90 | Pigweed plant response rating (pigweed; [14]): 100 | Pigweed plant response rating (pigweed; [15]): 100 | Wheat plant response rating (wheat [7]; [14]): 70 | Wheat plant response rating (wheat [7]; [15]): 70 | Plant response rating (scale of 0 to 100), Blackgrass (blackgrass; Preemergence, 250 g ai/ha): 90 | Blackgrass plant response rating (blackgrass; [16]): 85 | Plant response rating, Blackgrass (blackgrass; 62 g ai/ha, 13 to 15 days): 90 | Blackgrass plant response rating (blackgrass; [17]): 90 | Plant response rating (scale of 0 to 100), Wheat (wheat [8]; Preemergence, 250 g ai/ha): 90 | Wheat plant response rating (wheat [8]; [16]): 40 | Plant response rating, Wheat (wheat [8]; 62 g ai/ha, 13 to 15 days): 60 | Wheat plant response rating (wheat [8]; [17]): 90 | Plant response rating (scale of 0 to 100), Corn (corn [9]; Preemergence, 250 g ai/ha): 98 | Corn plant response rating (corn [9]; [16]): 40 | Plant response rating, Corn (corn [9]; 62 g ai/ha, 13 to 15 days): 65 | Corn plant response rating (corn [9]; [17]): 98 | Plant response rating (scale of 0 to 100), Foxtail, Giant (foxtail, giant; Preemergence, 250 g ai/ha): 100 | Foxtail, Giant plant response rating (foxtail, giant; [16]): 100 | Plant response rating, Foxtail, Giant (foxtail, giant; 62 g ai/ha, 13 to 15 days): 100 | Foxtail, Giant plant response rating (foxtail, giant; [17]): 100 | Plant response rating (scale of 0 to 100), Johnsongrass (johnsongrass; Preemergence, 250 g ai/ha): 100 | Johnsongrass plant response rating (johnsongrass; [16]): 90 | Plant response rating, Johnsongrass (johnsongrass; 62 g ai/ha, 13 to 15 days): 100 | Johnsongrass plant response rating (johnsongrass; [17]): 100 | Plant response rating (scale of 0 to 100), Ragweed (ragweed; Preemergence, 250 g ai/ha): 100 | Ragweed plant response rating (ragweed; [16]): 98 | Plant response rating, Ragweed (ragweed; 62 g ai/ha, 13 to 15 days): 100 | Ragweed plant response rating (ragweed; [17]): 100 | Plant response rating (scale of 0 to 100), Barnyardgrass (barnyardgrass [10]; Preemergence, 250 g ai/ha): 100 | Barnyardgrass plant response rating (barnyardgrass [10]; 31 g ai/ha, scale 0 to 100 (0 no effect, 100 complete control), 13 to 15 days): 100 | Plant response rating, Barnyardgrass (barnyardgrass [10]; 62 g ai/ha, 13 to 15 days): 100 | Barnyardgrass plant response rating (barnyardgrass [10]; [17]): 100 | Plant response rating (scale of 0 to 100), Oilseed Rape (oilseed rape; Preemergence, 250 g ai/ha): 100 | Oilseed Rape plant response rating (oilseed rape; [16]): 100 | Plant response rating, Oilseed Rape (oilseed rape; 62 g ai/ha, 13 to 15 days): 100 | Oilseed Rape plant response rating (oilseed rape; [17]): 100 | Plant response rating (scale of 0 to 100), Velvetleaf (velvetleaf [11]; Preemergence, 250 g ai/ha): 100 | Velvetleaf plant response rating (velvetleaf [11]; [16]): 100 | Plant response rating, Velvetleaf (velvetleaf [11]; 62 g ai/ha, 13 to 15 days): 100 | Velvetleaf plant response rating (velvetleaf [11]; [17]): 100

CCONC(=O)c1cc(OCC)n(Cc2ccnc(C(F)(F)F)c2)n1 [Compound 195]
Barnyardgrass plant response rating (0 to 100 scale, 0 is no effect, 100 is complete control) (barnyardgrass [1]; [18]): 90 | Barnyardgrass plant response rating (barnyardgrass [1]; [13]): 100 | Crabgrass, Large plant response rating (0 to 100 scale) (crabgrass, large [2]; [18]): 100 | Crabgrass, Large plant response rating (crabgrass, large [2]; [13]): 100 | Velvetleaf plant response rating (0 to 100 scale) (velvetleaf [3]; [18]): 80 | Velvetleaf plant response rating (velvetleaf [3]; [13]): 100 | Wheat plant response rating (0 to 100 scale) (wheat [4]; [18]): 80 | Wheat plant response rating (wheat [4]; [13]): 100 | Corn plant response rating (0 to 100 scale) (corn [5]; [18]): 0 | Corn plant response rating (corn [5]; [13]): 90 | Crabgrass, Large plant response rating (crabgrass, large [6]; [19]): 100 | Crabgrass, Large plant response rating (crabgrass, large [6]; [15]): 80 | Pigweed plant response rating (pigweed; [20]): 100 | Pigweed plant response rating (pigweed; [19]): 100 | Wheat plant response rating (wheat [7]; [20]): 90 | Wheat plant response rating (wheat [7]; [19]): 90 | Blackgrass plant response rating (blackgrass; [16]): 5 | Blackgrass plant response rating (blackgrass; [21]): 90 | Plant response rating, Blackgrass (blackgrass; 125 g ai/ha, 13 to 15 days): 90 | Blackgrass plant response rating (blackgrass; [22]): 90 | Wheat plant response rating (wheat [8]; [16]): 0 | Wheat plant response rating (wheat [8]; [21]): 45 | Plant response rating, Wheat (wheat [8]; 125 g ai/ha, 13 to 15 days): 85 | Wheat plant response rating (wheat [8]; [22]): 90 | Corn plant response rating (corn [9]; [16]): 25 | Corn plant response rating (corn [9]; [21]): 45 | Plant response rating, Corn (corn [9]; 125 g ai/ha, 13 to 15 days): 70 | Corn plant response rating (corn [9]; [22]): 95 | Foxtail, Giant plant response rating (foxtail, giant; [16]): 65 | Foxtail, Giant plant response rating (foxtail, giant; [21]): 85 | Plant response rating, Foxtail, Giant (foxtail, giant; 125 g ai/ha, 13 to 15 days): 100 | Foxtail, Giant plant response rating (foxtail, giant; [22]): 100 | Johnsongrass plant response rating (johnsongrass; [16]): 5 | Johnsongrass plant response rating (johnsongrass; [21]): 30 | Plant response rating, Johnsongrass (johnsongrass; 125 g ai/ha, 13 to 15 days): 75 | Johnsongrass plant response rating (johnsongrass; [22]): 85 | Ragweed plant response rating (ragweed; [21]): 85 | Plant response rating, Ragweed (ragweed; 125 g ai/ha, 13 to 15 days): 90 | Ragweed plant response rating (ragweed; [22]): 98 | Barnyardgrass plant response rating (barnyardgrass [10]; [16]): 60 | Barnyardgrass plant response rating (barnyardgrass [10]; [21]): 85 | Plant response rating, Barnyardgrass (barnyardgrass [10]; 125 g ai/ha, 13 to 15 days): 100 | Barnyardgrass plant response rating (barnyardgrass [10]; [22]): 100 | Oilseed Rape plant response rating (oilseed rape; [16]): 30 | Oilseed Rape plant response rating (oilseed rape; [21]): 85 | Plant response rating, Oilseed Rape (oilseed rape; 125 g ai/ha, 13 to 15 days): 95 | Oilseed Rape plant response rating (oilseed rape; [22]): 98 | Velvetleaf plant response rating (velvetleaf [11]; [16]): 15 | Velvetleaf plant response rating (velvetleaf [11]; [21]): 60 | Plant response rating, Velvetleaf (velvetleaf [11]; 125 g ai/ha, 13 to 15 days): 100 | Velvetleaf plant response rating (velvetleaf [11]; [22]): 100
